Test system: NIH-3T3 cells
Details: for incorporation of azide choline analogs into phospholipids: FIG. 8 legend
From the text: After incorporation into phospholipids, azidophosphatidylcholine molecules can be detected by specifically reacting them with a fluorescent conjugate of dibenzo-cyclooctyne (DBCO), in a strain-promoted azide-alkyne cycloaddition reaction, also known as the copper-free “click” reaction (FIG. 9). In addition, azidophosphatidylcholine molecules can be reacted with a biotin-phosphine, followed by the detection of the biotinylated phospholipid species using labeled streptavidin (FIG. 10).
Cultured NIH-3T3 cells on coverslips were incubated overnight in complete media (DMEM with 10% bovine calf serum) in the absence or presence of 1 mM azidopropyl-choline. The cells were then washed with PBS, fixed with 3.7% formaldehyde in PBS, washed with TBS and then reacted with 40 microM biotin-phosphine in TBS supplemented with 1 mM DTT, for 3 hours at room temperature. The cells were then washed successively with TBS, 0.5 M NaCl, and TBS. Non-specific binding sites were blocked by incubation with blocking buffer (4% bovine serum albumin in TBS), followed by staining with Alexa488-streptavidin (1 microg/mL in blocking buffer). The cells were then washed with TBS (at least 4 washes, at 5 minutes each), mounted and imaged by fluorescence microscopy.
Cultured NIH-3T3 cells were transiently transfected with the plasmid pDsRed-Mito (Clontech), which labels mitochondria red. The cells were then incubated overnight in complete media, in the absence or presence of 500 microM azidoethyl-choline. The cells were washed with PBS, fixed with 3.7% formaldehyde in PBS, washed with TBS and then reacted with 20 microM Alexa488-DBCO in TBS, for 30 minutes at room temperature. Unreacted Alexa488-DBCO was removed by washing successively with TBS, 0.5 M NaCl, and TBS. The cells were then imaged by fluorescence microscopy.

Substance | incorporation of azide choline analogs into phospholipids | subcellular distribution of azidoethylcholine-labeled phospholipids (NIH-3T3 cells, 500 microM overnight, DsRed-Mito marker, Alexa488-DBCO, FIG. 12)
azidoethyl-choline | efficiently incorporated into phospholipids in vivo | localize to several populations of cellular membranes, including the mitochondrial membrane
azidopropyl-choline | efficiently incorporated into phospholipids in vivo | 
